Experimental data published in patent US8987193B2, “Nisin derivatives and the use thereof” (University College Cork—National University of Ireland, Cork, priority 2008, dated 2015).
Entries after “also recorded” stand apart in the source; their conditions may differ. Ends that are not written are not given here.

Tests used:
L. plantarum CBC6 = experiment: Deferred antagonism assay; assay type: cell-based, Lactobacillus plantarum; design: key: + = Enhanced bioactivity relative to control; − = Bioactivity equal to or less than control; NA = no activity evident; settings: producing strain
Procedure, shortened: (§1)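 Producer strains replicated on GM17 or GM17 x-gal agar, grown overnight, then overlaid with 0.75% agar seeded with indicator strain. Zone size = diameter of clearing minus 5 mm growth diameter. Purified nisins tested by well diffusion at 37° C overnight; activity in AU/ml from reciprocal of highest active dilution × 20.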

L. monocytogenes CBC1 = experiment: Deferred antagonism assay; assay type: cell-based, Listeria monocytogenes; design: key: + = Enhanced bioactivity relative to control; − = Bioactivity equal to or less than control; NA = no activity evident; settings: producing strain; L. mono CBC1
Procedure, shortened: as §1

L. monocytogenes CBC2 = experiment: Deferred antagonism assay; assay type: cell-based, Listeria monocytogenes; design: key: + = Enhanced bioactivity relative to control; − = Bioactivity equal to or less than control; NA = no activity evident; settings: producing strain; L. mono CBC2
Procedure, shortened: as §1

L. monocytogenes CBC3 = experiment: Deferred antagonism assay; assay type: cell-based, Listeria monocytogenes; design: key: + = Enhanced bioactivity relative to control; − = Bioactivity equal to or less than control; NA = no activity evident; settings: producing strain; L. mono CBC3
Procedure, shortened: as §1

indicator strains = experiment: Deferred antagonism assays, various indicator strains (summary); assay type: cell-based; settings: for bioactivity of the producing strain, in words: in general / against the strains tested; for Strain(s) against which the derivative (producing strain) displays enhanced bioactivity: relative to nisin A-producing control, value = strains listed
Procedure, shortened: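 Producer strains were replicated on GM17 or GM17 x-gal agar, grown overnight, then overlaid with GM17, BHI, TS or MH soft agar (0.75% w/v) seeded with the indicator strain. Zone size was taken as the clearing diameter minus the diameter of bacterial growth (5 mm).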

[1] = tested on: Strep. agalactiae ATCC13813; experiment: Deferred antagonism assay; assay type: cell-based; settings: producing strain, diameter of zone minus 5 mm, average of duplicates
[2] = tested on: Staph. aureus ST528 (MRSA); experiment: Deferred antagonism assay; assay type: cell-based; settings: producing strain, diameter of zone minus diameter of bacterial growth (5 mm), average of duplicates
Procedure, shortened: (§2)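 Producer strains replicated on GM17 agar, grown overnight, then overlaid with soft agar (0.75% w/v) seeded with indicator strain. Zone size = clearing diameter minus 5 mm growth diameter, relative to NZ9800 pCI372nisA control; mean of duplicates.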

Staph. aureus DPC5245 = experiment: Deferred antagonism assay; assay type: cell-based; settings: producing strain; diameter of zone minus 5 mm; average of duplicates; St. aureus DPC5245
Procedure, shortened: as §2

L. lactis CBC8 = experiment: Deferred antagonism assay; assay type: cell-based; design: key: + = Enhanced bioactivity relative to control; − = Bioactivity equal to or less than control; NA = no activity evident; settings: producing strain
Procedure, shortened: as §1

S. aureus CBC4 = experiment: Deferred antagonism assay; assay type: cell-based; design: key: + = Enhanced bioactivity relative to control; − = Bioactivity equal to or less than control; NA = no activity evident; settings: producing strain
Procedure, shortened: as §1

L. lactis CBC7 = experiment: Deferred antagonism assay; assay type: cell-based; design: key: + = Enhanced bioactivity relative to control; − = Bioactivity equal to or less than control; NA = no activity evident; settings: producing strain
Procedure, shortened: as §1

C. sporogenes CBC5 = experiment: Deferred antagonism assay; assay type: cell-based, Clostridium sporogenes; design: key: + = Enhanced bioactivity relative to control; − = Bioactivity equal to or less than control; NA = no activity evident; settings: producing strain

Row | Substance | Bioactivity relative to control (L. plantarum CBC6) | Bioactivity relative to control (L. monocytogenes CBC1) | Bioactivity relative to control (L. monocytogenes CBC2) | Bioactivity relative to control (L. monocytogenes CBC3) | bioactivity of the producing strain, in words (indicator strains) | zone size relative to that of the NZ9800 pCI372nisA control [1] | zone size relative to that of the NZ9800 pCI372nisA control [2] | zone size relative to that of the NZ9800 pCI372nisA control (Staph. aureus DPC5245) | Bioactivity relative to control (L. lactis CBC8) | Bioactivity relative to control (S. aureus CBC4) | Bioactivity relative to control (L. lactis CBC7) | Bioactivity relative to control (C. sporogenes CBC5) | relative bioactivity against the indicators of Table 6 (indicator strains; Staph. aureus ST528, DPC5245 and Strep. agalactiae ATCC 13813 taken together) | Strain(s) against which the derivative (producing strain) displays enhanced bioactivity (indicator strains)
1 | M21E: nisin A derivative, hinge substitution M21E (ITSISLCTPGCKTGALMGCNEKTATCHCSIHVSK; cysteine pairing not given here; also: lantibiotic nisin-A; UniProt P13068 24-57, looked up, variant M21E) | − | − | − | − | loss of bioactivity | 0% | 0% | 0% | − | − | − | − |  | 
2 | NisinA K22G (ITSISLCTPGCKTGALMGCNMGTATCHCSIHVSK; cysteine pairing not given here; also: lantibiotic nisin-A; UniProt P13068 24-57, looked up, variant K22G) [nisin A derivative, hinge substitution K22G] | − | − | − | − |  | 126% | 118.5% | 112% | + | − | + | − | approximately 120% | L. lactis CBC7 and CBC8; also recorded: DPC5425, Strep. agalactiae ATCC 13813
3 | NisinA K22L (ITSISLCTPGCKTGALMGCNMLTATCHCSIHVSK; not fully specified; cysteine pairing not given here; also: lantibiotic nisin-A; UniProt P13068 24-57, looked up, variant K22L) [nisin A derivative, hinge substitution K22L] | − | − | − | − | retention of relatively high levels of bioactivity | 108% | 93.5% | 89% | + | − | − | − |  | L. lactis CBC8
4 | N20V: nisin A derivative, hinge substitution N20V (ITSISLCTPGCKTGALMGCVMKTATCHCSIHVSK; cysteine pairing not given here; also: lantibiotic nisin-A; UniProt P13068 24-57, looked up, variant N20V) | − | − | − | − | reduced bioactivity levels | 63% | 68% | 77% | − | − | − | − |  | 
5 | NisinA M21N | − | − | − | − | approximately wild type bioactivity | 98% | 95% | 90% | + | − | − | − |  | L. lactis CBC8
6 | N20L: nisin A derivative, hinge substitution N20L (ITSISLCTPGCKTGALMGCLMKTATCHCSIHVSK; cysteine pairing not given here; also: lantibiotic nisin-A; UniProt P13068 24-57, looked up, variant N20L) | − | − | − | − | retention of relatively high levels of bioactivity | 69% | 43% | 69.5% | − | − | − | − |  | 
7 | NisinA N20F (ITSISLCTPGCKTGALMGCFMKTATCHCSIHVSK; not fully specified; also: lantibiotic nisin: dehydrated residues and thioether rings not placed; UniProt P13068 24-57, looked up, variant N20F) [nisin A derivative, hinge substitution N20F] | − | − | − | − |  | 15% | 11.25% | 20.5% | − | − | + | − |  | L. lactis CBC7
8 | NisinA K22M (ITSISLCTPGCKTGALMGCNMMTATCHCSIHVSK; cysteine pairing not given here; also: lantibiotic nisin-A; UniProt P13068 24-57, looked up, variant K22M) [nisin A derivative, hinge substitution K22M] | − | − | − | − | retention of relatively high levels of bioactivity | 104% | 77% | 79.5% | + | − | − | − |  | L. lactis CBC8
